Test results taken from the NIST ThermoML archive (doi:10.1016/j.tca.2010.01.005).
± gives the expanded uncertainty stated by the source.

Assay: excess molar enthalpy (molar enthalpy of mixing); xn = mol fraction of the nth substance listed
Conditions: 303.15 K, 101 kPa, Liquid, Calvet calorimetry

BrCBr [dibromomethane] + CC#N
Conditions	excess molar enthalpy [kcal/mol]
x1 = 0.1028	0.0213 ± 0.000478
x1 = 0.2166	0.0349 ± 0.000478
x1 = 0.3067	0.0413 ± 0.000717
x1 = 0.4007	0.0428 ± 0.000717
x1 = 0.5547	0.0359 ± 0.000478
x1 = 0.6564	0.0256 ± 0.000478
x1 = 0.7022	0.0213 ± 0.000478
x1 = 0.8786	0.0055 ± 0.000239

BrCBr [dibromomethane] + CC(=O)c1ccccc1
Conditions	excess molar enthalpy [kcal/mol]
x1 = 0.1763	-0.0244 ± 0.000478
x1 = 0.3362	-0.0354 ± 0.000478
x1 = 0.4052	-0.0387 ± 0.000717
x1 = 0.4229	-0.0382 ± 0.000478
x1 = 0.5115	-0.0382 ± 0.000478
x1 = 0.6248	-0.0361 ± 0.000478
x1 = 0.7449	-0.0272 ± 0.000478
x1 = 0.852	-0.0182 ± 0.000478

c1ccoc1 [furan] + BrCBr
Conditions	excess molar enthalpy [kcal/mol]
x2 = 0.1499	0.0447 ± 0.000717
x2 = 0.2828	0.0554 ± 0.000717
x2 = 0.3405	0.0552 ± 0.000717
x2 = 0.4247	0.0507 ± 0.000717
x2 = 0.6268	0.0397 ± 0.000717
x2 = 0.7204	0.0344 ± 0.000478
x2 = 0.8358	0.0261 ± 0.000478
x2 = 0.9381	0.0131 ± 0.000239
